Test results reported in PMC6222780, “Synthesis, Spectroscopic Analysis and Assessment of the Biological Activity of New Hydrazine and Hydrazide Derivatives of 3-Formylchromone” (Molecules : A Journal of Synthetic Chemistry and Natural …, 2018).
pIC50: −log10 of the molar value.

Columns and labels:
[1] = test system: EA.hy926 cell line (the human umbilical vein, somatic cell hybrid); assay: XTT assay, cell proliferation study; format: cell-based; conditions: for pIC50 / The Range of Influence [%, Control = 100%] / Stimulating effect on proliferation: EA.hy926, XTT; for pIC50: 24 h incubation, 0.01–1250 µmol/L; for The Range of Influence [%, Control = 100%]: viability over 0.01–1250 µmol/L; for Selectivity of action (IC50 EA.hy926 versus L929): IC50 lower for EA.hy926 than for L929
Experimental: (§1) Four independent experiments (n = 4 for each used concentration) were performed. […] This indicates good or very good (in the case of 1, 3, 5, 8, 11) selectivity of action. […] Due to the dual action of these compounds, it would be advisable to study their effect on stimulation of proliferation at concentrations below 0.01 μmol/L. This dual action may be desirable during therapy, because the dosage may affect the nature of the compounds.
The EA.hy926 cell line (the human umbilical vein, somatic cell hybrid, American Type Culture Collection, Manassas, VA, USA) was used to evaluate the cytotoxicity of novel compounds. Cells were grown in Dulbecco’s Modified Eagle’s Medium (DMEM) which contains 10% of Fetal Bovine Serum (Biowest), 2 mmol/L glutamine (Sigma-Aldrich) and 100 units/mL penicillin with […] streptomycin (Biological Industries). Cells were plated and grown in an incubator at 37 °C with 5% CO2 to 80% confluence before the initiation of the assay.
(§2) The XTT assay was used to evaluate cell metabolic activity. […] The number of viable cells is correlated with the colour intensity determined by photometric measurements. XTT (Serva, Heidelberg, Germany) was dissolved in MEM without phenol red (PAN-Biotech, Aidenbach, Germany) or DMEM without phenol red (PAN-Biotech) at a concentration of 1 mg/mL. Phenazine metosulphate (PMS) (Serva) was dissolved in phosphate-buffered saline (PBS, 5 mmol/L). PMS solution was then added to the XTT solution at a concentration of 25 μM. Investigated compounds were dissolved in dimethyl sulfoxide (DMSO) to obtain stock solutions.
(§3) L929 and EA.hy926 cells were seeded into 96-well plates at a density of 1 × 10^4 cells per well. They were cultured for 24 h in the incubator (37 °C and 5% CO2). After that time, the medium was removed. Then the 100 µL of medium containing investigated compounds (in the range of concentration 0.01–1250 µmol/L) or only culture medium (blank control) were added. Cisplatin was used as a reference compound. Cells were further incubated for 24 h. At the third day, the old medium were removed and cells were washed with PBS. 100 µL of culture medium with the additional 50 µL of the XTT/PMS solution were added to each well. Plates were incubated in the dark for 3 h at 37 °C. Then, the plates were swayed and an aliquot of 100 µL from each well was transferred into the corresponding well of a new plate. Finally, the absorbance was measured by using the microplate reader (Synergy H1, BioTek, Winooski, VT, USA) at a wavelength of 450 nm. The cell viability was expressed as a percentage of the control values (blanks).

[2] = test system: L929 cell line (mouse fibroblast cell line); assay: XTT assay, cell proliferation study; format: cell-based; conditions: L929, XTT; for pIC50: 24 h incubation, 0.01–1250 µmol/L; for The Range of Influence [%, Control = 100%]: viability over 0.01–1250 µmol/L
Experimental: as §1
The mouse fibroblast cell line L929 (Sigma-Aldrich) was grown in MEM (Minimum Essential Medium) (Biowest, Nuaillé, France) containing 10% of Fetal Bovine Serum (Biowest), 1 mmol/L sodium pyruvate (Biological Industries, Cromwell, CT, USA), 0.5 mmol/L non-essential amino acids (Sigma-Aldrich) and 100 units/mL penicillin with […] streptomycin (Biological Industries) in an incubator at 37 °C with 5% CO2. Cells were plated and grown to 80% confluence before the initiation of the assay.
as §2, §3

[3] = test system: Streptococcus pneumoniae ATCC 49619; assay: Disc diffusion, inhibition of growth zones; format: cell-based; conditions: S. pneumoniae; discs at 100 or 200 µg/mL, 24 h at 37 °C
Experimental: (§4) Fifteen strains of microorganisms from different species were used. The growth inhibition zones were evaluated in two independent experiments (n = 2 in each of them), and the potential inhibitors of microbial growth are presented in Table 3. The hydrazine and hydrazide derivatives of 3-formylchromone constitute a class of potential antimicrobial agents and are worthy of further investigation. […] In case of N. meningitidis (result with *) the action of 9 was noted just for 100 µg/mL and the influence in concentration of 200 µg/mL was not observed.
(§5) The microbial reference strains representing different families of bacteria and fungi, pathogenic for man and animals, were used. The 15 strains were derived from international microbial collections held by the Department of Pharmaceutical Microbiology and Microbiological Diagnostics of the Medical University of Lodz: Candida albicans ATCC 10231, Enterococcus faecalis ATCC 29212, Klebsiella pneumoniae ATCC 700603, Pseudomonas aeruginosa NCTC 6749, Proteus vulgaris CCM 1799, Staphylococcus epidermidis ATCC 12228, Shigella flexneri ATCC 12022, Streptococcus pneumoniae ATCC 49619, Streptococcus pyogenes ATCC 19615, Corynebacterium jeikeium K411, Escherichia coli ATCC 25922, Staphylococcus aureus NCTC 4135, Streptococcus dysgalactiae subsp. equisimilis ATCC 12394, Neisseria meningitidis DSM 25942, Listeria monocytogenes PCM 2191.
(§6) The strains were stored at −80 °C, frozen in a 1:1 mixture of Brain Heart Infusion (BHI) broth and glycerol. The reference strains, depending on the growth requirements, were grown on a solid medium—nutrient agar, nutrient agar with 5% addition of lambs defibrinated blood or (in the case of Corynebacterium jeikeium) Triptic Soy Agar (TSA) with the addition of sheep blood, yeast extract and Tween-80. The susceptibility of the strains to chemical compounds was measured analogously to the adopted method of diffusion and disc preparation of antibiotics for compounds introduced into treatment. After receiving the pure culture of the reference strain, obtained from frozen samples and grown on the appropriate medium for growth requirements, suspensions of the tested strains were prepared in a physiological NaCl solution with a density of 0.5 on the McFarland scale. These suspensions were seeded with a cotton ball over the entire surface of the test medium. Discs impregnated with the test compound at a concentration of 100 or 200 µg/mL were then placed on it and incubated for 24 h at 37 °C.

[4] = test system: Fifteen strains of microorganisms from different species; assay: Initial antimicrobial screening by disc diffusion on the whole panel; format: cell-based; conditions: 15 strains, discs at 100 or 200 µg/mL
Experimental: as §4, §5, §6

[5] = test system: Staphylococcus epidermidis ATCC 12228; assay: Disc diffusion, inhibition of growth zones; format: cell-based; conditions: S. epidermidis; discs at 100 or 200 µg/mL, 24 h at 37 °C
Experimental: as §4, §5, §6

[6] = test system: Neisseria meningitidis DSM 25942; assay: Disc diffusion, inhibition of growth zones; format: cell-based; conditions: N. meningitidis
Experimental: as §4, §5, §6

N.N.[Cl][Pt][Cl] [Cisplatin, reference compound]
pIC50 [1]: 4.17 | The Range of Influence [%, Control = 100%] [1]: 8.71–75.14% | pIC50 [2]: 4.13 | The Range of Influence [%, Control = 100%] [2]: 8.49–55.70%

O=c1c(C=NNc2cc(F)ccc2F)coc2ccccc12 [Compound 1, 3-[(2,5-Difluorophenyl)-hydrazonomethyl]-chromen-4-one]
Inhibition of growth zones (lowest effective studied concentration) [3]: 100 µg/mL | Inhibition of microbial growth (result in words) [4]: exhibit antimicrobial potential | Stimulating effect on proliferation [1]: weak stimulating effect | pIC50 [1]: 4.23 | The Range of Influence [%, Control = 100%] [1]: 14.79–106.26% | Selectivity of action (IC50 EA.hy926 versus L929) [1]: very good | Stimulating effect on proliferation [2]: weak stimulating effect | pIC50 [2]: 3.68 | The Range of Influence [%, Control = 100%] [2]: 27.64–101.8%

O=c1c(C=NNc2ccc(C(F)(F)F)cc2)coc2ccccc12 [Compound 3, 3-[(4-Trifluoromethylphenyl)-hydrazonomethyl]-chromen-4-one]
Inhibition of microbial growth (result in words) [4]: not able to inhibit microbial growth | Stimulating effect on proliferation [1]: slightly stimulated | pIC50 [1]: 3.01 | The Range of Influence [%, Control = 100%] [1]: 37.40–101.33% | Selectivity of action (IC50 EA.hy926 versus L929) [1]: very good | The Range of Influence [%, Control = 100%] [2]: 55.91–96.98%

O=c1c(C=NNc2cc(C(F)(F)F)cc(C(F)(F)F)c2)coc2ccccc12 [Compound 4, 3-[(3,5-Bis-trifluoromethylphenyl)-hydrazonomethyl]-chromen-4-one]
Inhibition of growth zones (lowest effective studied concentration) [5]: 100 µg/mL | Inhibition of microbial growth (result in words) [4]: exhibit antimicrobial potential | Stimulating effect on proliferation [1]: weak stimulating effect | pIC50 [1]: 3.27 | The Range of Influence [%, Control = 100%] [1]: 28.46–102.18% | Stimulating effect on proliferation [2]: weak stimulating effect | pIC50 [2]: 2.99 | The Range of Influence [%, Control = 100%] [2]: 45.61–101.31%

O=C(N/N=C/c1coc2ccccc2c1=O)c1ccc(F)cc1 [Compound 5, 4-Fluorobenzoic acid [1-(4-oxo-4H-chromen-3-yl)-meth-(E)-ylidene]-hydrazide]
Inhibition of microbial growth (result in words) [4]: not able to inhibit microbial growth | The Range of Influence [%, Control = 100%] [1]: 11.81–60.64% | Selectivity of action (IC50 EA.hy926 versus L929) [1]: very good | The Range of Influence [%, Control = 100%] [2]: 16.03–56.35% | pIC50 ([2]; Mus musculus): 4.18 | melting point: 201 to 202 °C

O=c1c(C=NNc2c(F)c(F)cc(F)c2F)coc2ccccc12 [Compound 6, 3-[(2,3,5,6-Tetrafluorophenyl)-hydrazonomethyl]-chromen-4-one]
Inhibition of microbial growth (result in words) [4]: not able to inhibit microbial growth | pIC50 [1]: 3.24 | The Range of Influence [%, Control = 100%] [1]: 24.47–97.86% | pIC50 [2]: 3.14 | The Range of Influence [%, Control = 100%] [2]: 40.05–93.11%

Cc1ccc(F)cc1NN=Cc1coc2ccccc2c1=O [Compound 7, 3-[(5-Fluoro-2-methylphenyl)-hydrazonomethyl]-chromen-4-one]
Inhibition of growth zones (lowest effective studied concentration) [5]: 100 µg/mL | Inhibition of microbial growth (result in words) [4]: exhibit antimicrobial potential | Stimulating effect on proliferation [1]: slightly stimulated | pIC50 [1]: 3.02 | The Range of Influence [%, Control = 100%] [1]: 42.43–101.05% | pIC50 [2]: 3.02 | The Range of Influence [%, Control = 100%] [2]: 44.89–96.11%

O=c1c(C=NNc2c(F)cc(F)cc2F)coc2ccccc12 [Compound 8, 3-[(2,4,6-Trifluorophenyl)-hydrazonomethyl]-chromen-4-one]
Inhibition of microbial growth (result in words) [4]: not able to inhibit microbial growth | pIC50 [1]: 4.74 | The Range of Influence [%, Control = 100%] [1]: 23.31–63.94% | Selectivity of action (IC50 EA.hy926 versus L929) [1]: very good | pIC50 [2]: 4.01 | The Range of Influence [%, Control = 100%] [2]: 38.11–64.40%

O=c1c(C=NNc2c(F)c(F)c(F)c(F)c2F)coc2ccccc12 [Compound 9, 3-(Pentafluorophenyl-hydrazonomethyl)-chromen-4-one]
Influence on growth at 200 µg/mL ([6]; disc at 200 µg/mL): not observed | Inhibition of growth zones (lowest effective studied concentration) ([6]; discs at 100 or 200 µg/mL, 24 h at 37 °C): 100 µg/mL | Inhibition of microbial growth (result in words) [4]: exhibit antimicrobial potential | pIC50 [1]: 3.60 | The Range of Influence [%, Control = 100%] [1]: 13.15–69.88% | pIC50 [2]: 3.41 | The Range of Influence [%, Control = 100%] [2]: 13.92–85.11%

O=c1c(C=NNc2ccccc2C(F)(F)F)coc2ccccc12 [Compound 10, 3-[(2-Trifluoromethylphenyl)-hydrazonomethyl]-chromen-4-one]
Inhibition of growth zones (lowest effective studied concentration) [5]: 100 µg/mL | Inhibition of microbial growth (result in words) [4]: exhibit antimicrobial potential | pIC50 [1]: 3.19 | The Range of Influence [%, Control = 100%] [1]: 31.21–94.69% | pIC50 [2]: 2.92 | The Range of Influence [%, Control = 100%] [2]: 48.62–73.47%
